Results published in patent US20110160196A1, “FACTOR XA INHIBITORS” (Millennium Pharmaceuticals, Inc., priority 2007, published 2011).
pIC50: −log10 of the molar value.

These molecules were tested against T1, human plasma protein factor Xa (Homo sapiens, UniProt P00742) (assay: Factor Xa IC50 determination (cleavage of paranitroanilide substrate S-2765)). Conditions: factor Xa 1 nM, S-2765 100 μM, Tris buffered saline pH 7.4, read at 405 nm.
T1 construct: The human plasma protein factor Xa was purchased; purchased Haematologic Technologies (Essex Junction, Vt.); host or cells: human plasma
T1 sequence (P00742 235-488 limits assumed): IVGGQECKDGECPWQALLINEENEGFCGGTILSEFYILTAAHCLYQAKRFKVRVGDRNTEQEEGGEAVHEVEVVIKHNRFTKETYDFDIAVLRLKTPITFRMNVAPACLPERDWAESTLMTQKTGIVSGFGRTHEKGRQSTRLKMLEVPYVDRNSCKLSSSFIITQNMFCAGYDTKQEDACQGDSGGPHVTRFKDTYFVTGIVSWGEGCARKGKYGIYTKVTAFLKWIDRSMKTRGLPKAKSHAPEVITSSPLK
T1 sequence (P00742 41-179 partner limits assumed): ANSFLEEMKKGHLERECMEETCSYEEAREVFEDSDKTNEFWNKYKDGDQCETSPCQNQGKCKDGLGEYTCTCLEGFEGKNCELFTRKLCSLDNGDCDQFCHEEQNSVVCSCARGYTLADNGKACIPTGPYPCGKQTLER
Format: biochemical
From the text: This example illustrates methods for evaluating the compounds of the invention, along with results obtained for such assays. The in vitro and in vivo human Factor Xa activities of the inventive compounds can be determined by various procedures known in the art, such as a test for their ability to inhibit the activity of human plasma Factor Xa. […] The IC50 value is the concentration (in nM) of the compound required to provide 50% inhibition of human Factor Xa proteolytic activity.
An in vitro assay for detecting and measuring inhibition activity against Factor Xa is as follows:
The substrate S-2765 (Z-D-Arg-Gly-Arg-pNA.HCl) was obtained from Diapharma (West Chester, Ohio).
The human plasma protein factor Xa was purchased from Haematologic Technologies (Essex Junction, Vt.).
All assays, which are performed in 96-well microtiter plates, measure proteolytic activity of the enzyme (factor Xa) by following cleavage of a paranitroanilide peptide substrate. The assay buffer used for proteolytic assays was Tris buffered saline (20 mM Tris, 150 mM NaCl, 5 mM CaCl2, 0.1% Bovine serum albumin (BSA), 5% Dimethly Sulfoxide (DMSO) pH 7.4). In a 96-well microtiter plate, inhibitor was serially diluted to give a range of final concentrations from 0.01 nM to 10 μM. Duplicate sets of wells were assayed and control wells without inhibitor were included. Enzyme was added to each well, (factor Xa concentration=1 nM), the plate was shaken for 5 seconds and then incubated for 5 minutes at room temperature. S-2765 was added (100 μM final) and the plate was shaken for 5 seconds (final volume in each well was 200 μl). The degree of substrate hydrolysis was measured at 405 nm on a Thermomax plate reader (Molecular Devices, Sunnyvale, Calif.) for 2 minutes. The initial velocities of substrate cleavage (mOD/min), for each range of inhibitor concentrations, were fitted to a four parameter equation using Softmax data analysis software. The parameter C, derived from the resulting curve-fit, corresponded to the concentration for half maximal inhibition (IC50).

pIC50, ≥ 7.00:
O=C(NCc1cn(-c2ccc(-n3ccccc3=O)cc2N2CCCCC2)nn1)c1ccc(Cl)s1 [Compound 4, 5-Chloro-N-((1-(4-(2-oxopyridin-1(2H)-yl)-2-(piperidin-1-yl)phenyl)-1H-1,2,3-triazol-4-yl)methyl)thiophene-2-carboxamide]
C[S+]([O-])c1cc(-n2ccccc2=O)ccc1-n1cc(CNC(=O)c2ccc(Cl)s2)nn1 (centres unmarked) [Compound 51, 5-Chloro-N-((1-(2-(methylsulfoxy)-4-(2-oxopyridin-1(2H)-yl)phenyl)-1H-1,2,3-triazol-4-yl)methyl)thiophene-2-carboxamide]
CNC(=O)c1cc(-n2ccccc2=O)ccc1-n1cc(CNC(=O)c2ccc(Cl)s2)nn1 [Compound 102, 5-Chloro-N-((1-(2-(methylcarbamoyl)-4-(2-oxopyridin-1(2H)-yl)phenyl)-1H-1,2,3-triazol-4-yl)methyl)thiophenc-2-carboxamide]
O=C(NCc1cn(-c2ccc(-n3ccccc3=O)cc2OCCn2ccnc2)nn1)c1ccc(Cl)s1 [Compound 148, N-((1-(2-(2-(1H-Imidazol-1-yl)ethoxy)-4-(2-oxopyridin-1(2H)-yl)phenyl)-1H-1,2,3-triazol-4-yl)methyl)-5-chlorothiophene-2-carboxamide]
CNc1ccc(-c2cc(-n3ccccc3=O)ccc2-n2cc(CNC(=O)c3ccc(Cl)s3)nn2)cn1 [Compound 146, 5-Chloro-N-((1-(2-(6-(methylamino)pyridin-3-yl)-4-(2-oxopyridin-1(2H)-yl)phenyl)-1H-1,2,3-triazol-4-yl)methyl)thiophene-2-carboxamide]
O=C(NCc1cn(-c2ccc(-n3ccccc3=O)cc2Oc2ccccn2)nn1)c1ccc(Cl)s1 [Compound 151, 5-Chloro-N-((1-(4-(2-oxopyridin-1(2H)-yl)-2-(pyridin-2-yloxy)phenyl)-1H-1,2,3-triazol-4-yl)methyl)thiophene-2-carboxamid]
O=C(O)COc1cc(-n2ccccc2=O)ccc1-n1nnc(CNC(=O)c2ccc(Cl)s2)c1I [Compound 152, 2-(2-(4-((5-Chlorothiophene-2-carboxamido)methyl)-5-iodo-1H-1,2,3-triazol-1-yl)-5-(2-oxopyridin-1(2H)-yl)phenoxy)acetic acid]
O=C(NCc1cn(-c2ccc(-n3ccccc3=O)cc2-n2ccnc2)nn1)c1ccc(Cl)s1 [Compound 42, N-((1-(2-(1H-Imidazol-1-yl)-4-(2-oxopyridin-1(2H)-yl)phenyl)-1H-1,2,3-triazol-4-yl)methyl)-5-chlorothiophene-2-carboxamide]
O=C(NCc1cn(-c2ccc(-n3ccccc3=O)cc2CN2CCS(=O)(=O)CC2)nn1)c1ccc(Cl)s1 [Compound 163, 5-Chloro-N-((1-(4-(2-oxopyridin-1(2H)-yl)-2-(1,1,- dioxothiomorpholinomethyl)phenyl)-1H-1,2,3-triazol-4-yl)methyl)thiophene-2-carboxamide]
O=C(NCc1cn(-c2ccc(-n3ccccc3=O)cc2OCCc2cccnc2)nn1)c1ccc(Cl)s1 [Compound 174, 5-Chloro-N-((1-(4-(2-oxopyridin-1(2H)-yl)-2-(2-(pyridin-3-yl)ethoxy)phenyl)-1H-1,2,3-triazol-4-yl)methyl)thiophene-2-carboxamide]
O=C(NCc1cn(-c2ccc(-n3ccccc3=O)cc2N2CC[S+]([O-])CC2)nn1)c1ccc(Cl)s1 [Compound 11, 5-Chloro-N-((1-(4-(2-oxopyridin-1(2H)-yl)-2-((1-oxo-)thiomorpholino)phenyl)-1H-1,2,3-triazol-4-yl)methyl)thiophene-2-carboxamide]
O=C(NCc1cn(-c2ccc(-n3ccccc3=O)cc2OCc2ncon2)nn1)c1ccc(Cl)s1 [Compound 175, N-((1-(2-((1,2,4-Oxadiazol-3-yl)methoxy)-4-(2-oxopyridin-1(2H)-yl)phenyl)-1H-1,2,3-triazol-4-yl)methyl)-5-chlorothiophene-2-carboxamide]
O=C(NCc1cn(-c2ccc(-n3ccccc3=O)cc2-c2ccc(Cl)nc2)nn1)c1ccc(Cl)s1 [Compound 135, 5-Chloro-N-((1-(2-(6-chloropyridin-3-yl)-4-(2-oxopyridin-1(2H)-yl)phenyl)-1H-1,2,3-triazo1-4-yl)methyl)thiophene-2-carboxamide]
O=C(NCc1cn(-c2ccc(-n3ccccc3=O)cc2OC2CCNCC2)nn1)c1ccc(Cl)s1 [Compound 57, 5-Chloro-N-((1-(4-(2-oxopyridin-1(2H)-yl)-2-(piperidin-4-yloxy)phenyl)-1H-1,2,3-triazol-4-yl)methyl)thiophene-2-carboxamide]
Nc1ccc(-c2cc(-n3ccccc3=O)ccc2-n2cc(CNC(=O)c3ccc(Cl)s3)nn2)cn1 [Compound 144, N-((1-(2-(6-Aminopyridin-3-yl)-4-(2-oxopyridin-1(2H)-yl)phenyl)-1H-1,2,3-triazol-4-yl)methyl)-5-chlorothiophene-2-carboxamide]
O=C(NCc1cn(-c2ccc(-n3ccccc3=O)cc2C(=O)NCc2nnn[nH]2)nn1)c1ccc(Cl)s1 [Compound 117, N-((1-(2-(((1H-Tetrazol-5-yl)methyl)carbamoyl)-4-(2-oxopyridin-1(2H)-yl)phenyl)-1H-1,2,3-triazol-4-yl)methyl)-5-chlorothiophene-2-carboxamide]
CN(C)CC[N+](C)(C)CCOc1cc(-n2ccccc2=O)ccc1-n1cc(CNC(=O)c2ccc(Cl)s2)nn1 [Compound 86]
COc1cc(-n2ccccc2=O)ccc1-n1cc(CNC(=O)c2ccc(Cl)s2)nn1 [Compound 56, 5-Chloro-N-((1-(2-methoxy-4-(2-oxopyridin-1(2H)-yl)phenyl)-1H-1,2,3-triazol-4-yl)methyl)thiophene-2-carboxamide]
O=C(NCc1cn(-c2ccc(-n3ccccc3=O)cc2OCCCO)nn1)c1ccc(Cl)s1 [Compound 74, 5-Chloro-N-((1-(2-(3-hydroxypropoxy)-4-(2-oxopyridin-1(2H)-yl)phenyl)-1H-1,2,3-triazol-4-yl)methyl)thiophene-2-carboxamide]
CN(C)Cc1cc(-n2ccccc2=O)ccc1-n1cc(CNC(=O)c2ccc(Cl)s2)nn1 [Compound 121, 5-Chloro-N-((1-(2-((dimethylamino)methyl)-4-(2-oxopyridin-1(2H)-yl)phenyl)-1H-1,2,3-triazol-4-yl)methyl)thiophene-2-carboxamide]
O=C(NCc1cn(-c2ccc(-n3ccccc3=O)cc2OCc2cscn2)nn1)c1ccc(Cl)s1 [Compound 171, 5-Chloro-N-((1-(4-(2-oxopyridin-1(2H)-yl)-2-(thiazol-4-ylmethoxy)phenyl)-1H-1,2,3-triazol-4-yl)methyl)thiophene-2-carboxamide]
Nc1cc(-c2cc(-n3ccccc3=O)ccc2-n2cc(CNC(=O)c3ccc(Cl)s3)nn2)ccn1 [Compound 139, N-((1-(2-(2-Aminopyridin-4-yl)-4-(2-oxopyridin-1(2H)-yl)phenyl)-1H-1,2,3-triazol-4-yl)methyl)-5-chlorothiophene-2-carboxamide]
O=C(NCc1cn(-c2ccc(-n3ccccc3=O)cc2OC[C@H](O)CO)nn1)c1ccc(Cl)s1 [Compound 78, 5-Chloro-N-((1-(2-((R)-2,3-dihydroxypropoxy)-4-(2-oxopyridin-1(2H)-yl)phenyl)-1H-1,2,3-triazol-4-yl)methyl)thiophene-2-carboxamide]
NCc1cc(-n2ccccc2=O)ccc1-n1cc(CNC(=O)c2ccc(Cl)s2)nn1 [Compound 120, N-((1-(2-(Aminomethyl)-4-(2-oxopyridin-1(2H)-yl)phenyl)-1H-1,2,3-triazol-4-yl)methyl)-5-chlorothiophene-2-carboxamide]
O=C(NCc1cn(-c2ccc(-n3ccccc3=O)cc2OCCN2CCCC2)nn1)c1ccc(Cl)s1 [Compound 88, 5-Chloro-N-((1-(4-(2-oxopyridin-1(2H)-yl)-2-(2-(pyrrolidin-1-yl)ethoxy)phenyl)-1H-1,2,3-triazol-4-yl)methyl)thiophene-2-carboxamide]
O=C(NCc1cn(-c2ccc(-n3ccccc3=O)cc2OCCCN2CCCCC2)nn1)c1ccc(Cl)s1 [Compound 94, 5-Chloro-N-((1-(4-(2-oxopyridin-1(2H)-yl)-2-(3-(piperidin-1-yl)propoxy)phenyl)-1H-1,2,3-triazol-4-yl)methyl)thiophene-2-carboxamide]
